# Test results as given in US20140121231A1, “PYRANOPYRIDONE INHIBITORS OF TANKYRASE” (Hoffmann-La Roche, Inc., priority 2012, published 2014).
# Structures can show the parent of a compound that is named as a salt.
# How the values were obtained:
# [1] = biological target: T1, PARP1 (His6-PARP1, full length) (Homo sapiens, UniProt P09874); experiment: TR-FRET Binding Assay (Example 71), PARP1; conditions: TR-FRET assay of Example 71 with His6-PARP1
# T1 construct: His6-PARP1 (full length) can be substituted for His6-TNKS 1
# T1 sequence (P09874 whole entry, species assumed): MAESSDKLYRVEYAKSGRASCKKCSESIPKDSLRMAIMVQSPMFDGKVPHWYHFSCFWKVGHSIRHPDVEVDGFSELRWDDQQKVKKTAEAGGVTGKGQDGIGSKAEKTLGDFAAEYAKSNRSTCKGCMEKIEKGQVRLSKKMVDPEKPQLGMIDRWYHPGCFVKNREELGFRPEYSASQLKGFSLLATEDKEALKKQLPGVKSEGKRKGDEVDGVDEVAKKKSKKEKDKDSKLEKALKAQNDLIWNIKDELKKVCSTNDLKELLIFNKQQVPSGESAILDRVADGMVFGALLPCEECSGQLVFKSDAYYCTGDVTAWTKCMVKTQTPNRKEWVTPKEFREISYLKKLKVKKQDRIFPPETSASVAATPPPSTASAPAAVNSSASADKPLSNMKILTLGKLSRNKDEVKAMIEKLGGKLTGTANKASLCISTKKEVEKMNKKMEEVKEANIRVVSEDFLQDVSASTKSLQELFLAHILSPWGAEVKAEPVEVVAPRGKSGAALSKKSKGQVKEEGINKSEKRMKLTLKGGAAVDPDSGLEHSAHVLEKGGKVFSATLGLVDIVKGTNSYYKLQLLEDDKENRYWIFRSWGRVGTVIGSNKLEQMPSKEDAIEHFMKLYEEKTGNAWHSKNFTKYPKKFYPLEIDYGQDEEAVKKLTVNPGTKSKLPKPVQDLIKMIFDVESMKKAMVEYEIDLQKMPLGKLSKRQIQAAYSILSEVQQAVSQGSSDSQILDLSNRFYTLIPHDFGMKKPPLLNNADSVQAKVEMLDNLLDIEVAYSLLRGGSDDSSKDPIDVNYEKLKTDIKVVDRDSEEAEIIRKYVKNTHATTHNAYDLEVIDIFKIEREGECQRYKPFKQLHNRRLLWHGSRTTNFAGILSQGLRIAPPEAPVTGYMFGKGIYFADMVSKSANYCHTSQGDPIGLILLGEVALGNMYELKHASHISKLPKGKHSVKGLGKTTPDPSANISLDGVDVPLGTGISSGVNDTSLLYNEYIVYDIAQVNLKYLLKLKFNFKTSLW
# Experimental: (§1) μHTS-TNKS-IWR2 TR-FRET Binding Assay (10 μL/well in BD1536-well plate, a single point)
# Tankyrase 1 (TNKS1): 184.3 μM=5.2 mg/mL His6-TNKS1, MW=28.2 KDa (construct: 1088-1327, 1266M) in 20 mM Tris pH 8, 150 mM NaCl, 10% glycerol, and 0.5 mM TCEP. Alternatively, His6-tankyrase 2 (construct: 934-1166) (His6-TNKS2) or His6-PARP1 (full length) can be substituted for His6-TNKS 1.
# (§2) Assay buffer 1a (AB1a) for TNKS dilution: 50 mM Tris, pH 7.4, 100 mM sodium chloride solution, 1 mM magnesium chloride solution, 1 mM DL-dithiothreitol solution, 0.2 mg/mL bovine serum albumin solution, 0.025% NP-40. Assay buffer 1b (AB 1b) for Biotin-IWR2 dilution: 50 mM Tris, pH 7.4, 100 mM sodium chloride solution, 1 mM magnesium chloride solution, 1 mM DL-dithiothreitol solution, 0.2 mg/mL bovine serum albumin solution, 0.05% NP-40 Assay buffer 1c (AB 1c) for compound dilution: 50 mM Tris, pH 7.4, 100 mM sodium chloride solution, 1 mM magnesium chloride solution, 1 mM DL-dithiothreitol solution, 0.2 mg/mL bovine serum albumin solution Assay buffer 2 (AB2) for Eu/APC: 50 mM Tris, pH 7.4, 100 mM sodium chloride solution, 1 mM magnesium chloride solution, 0.2 mg/mL bovine serum albumin solution
# Prepare Biotinylated IWR2 stock solution (3.33× stock) for TOTL and compound wells: 200 nM Biotin-IWR2 in 5% DMSO/AB1b buffer
# Prepare BLANK well stock solution: 5% DMSO/AB1b buffer Prepare POSITIVE CONTROL well stock solution (3.33× stock): 200 nM XAV939 in 200 nM Biotin-IWR2/5% DMSO/AB1b buffer Prepare TNKS1 stock solution (5× stock): 300 nM TNKS in AB1a buffer. (Alternatively, use TNKS2 or PARP1 stock solutions.) Prepare Eu/APC stock solution (5× stock): 3.5 nM Eu-SA/50 nM APC-His6Ab in AB2 buffer.
# (§3) Add 25 μL/well 1.5% DMSO/AB1c buffer in each compound well to the compound concentration at 74 μM in 8.8% DMSO/AB1c buffer or in the 2 μL DMSO CONTROL wells (BLANK, TOTAL and POSITIVE wells) in the compound plate. Transfer 3 μL/well of above solution (solution 1,2,3) to an empty assay plate (BD1536-well plate) as follows: TOTAL and cpd wells: Solution 1 (Biotin-IWR2): BLANK wells: Solution 2 (No Biotin-IWR2): POSITIVE CONTROL wells: Solution 3 (Biotin-IWR2XAV939) Transfer 3 μL/well of the above diluted compound solutions or compound dilution buffer to the above assay plate. Add 2 μL/well of 300 nM TNKS stock solution (4) to every well in the above assay plate. Centrifuge the assay plate at 2100 rpm for 2 min. Incubate the assay plate at 26° C. for 30 minutes. Add 2 μL/well 3.5 nMEu/50 nM APC solution (5) to every well in the above assay plate. Centrifuge the assay plate at 2100 rpm for 2 min. Incubate the assay plate at 26° C. for 60 min. Read the assay plate immediately at excitation wavelength of 330 nm and emission wavelength of 615 and 665 nM in time resolved fluorescence mode.
# . Representative compound data for the PARP1 assay is in TABLE 2 (below) Values are in μM.
# [2] = biological target: T2, Tankyrase 1 (TNKS1) (Homo sapiens, UniProt O95271); experiment: μHTS-TNKS-IWR2 TR-FRET Binding Assay (Example 71), TNKS1
# T2 construct: His6-TNKS1, MW=28.2 KDa (construct: 1088-1327, 1266M)
# T2 sequence (O95271 1088-1327): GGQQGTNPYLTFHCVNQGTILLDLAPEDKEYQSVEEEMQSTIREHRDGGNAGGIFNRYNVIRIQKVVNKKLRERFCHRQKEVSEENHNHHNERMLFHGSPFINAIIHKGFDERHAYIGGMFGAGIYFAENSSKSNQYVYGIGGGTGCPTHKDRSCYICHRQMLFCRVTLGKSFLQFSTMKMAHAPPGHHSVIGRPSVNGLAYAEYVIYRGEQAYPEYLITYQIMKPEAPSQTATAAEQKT
# Experimental: as §1, §2
# as §3, with “Transfer” for “Add 25 μL/well 1.5% DMSO/AB1c buffer in each compound well to the compound concentration at 74 μM in 8.8% DMSO/AB1c buffer or in the 2 μL DMSO CONTROL wells (BLANK, TOTAL and POSITIVE wells) in the compound plate. Transfer”, “min.” for “min. Read the assay plate immediately at excitation wavelength of 330 nm and emission wavelength of 615 and 665 nM in time resolved fluorescence mode.”
# [3] = biological target: T3, tankyrase 2 (His6-TNKS2) (Homo sapiens, UniProt Q9H2K2); experiment: μHTS-TNKS-IWR2 TR-FRET Binding Assay (Example 71), TNKS2; conditions: footnote 1: Tankyrase 1 and 2 inhibition assay in Example 71 (TR-FRET)
# T3 construct: His6-tankyrase 2 (construct: 934-1166) (His6-TNKS2)
# T3 sequence (Q9H2K2 934-1166): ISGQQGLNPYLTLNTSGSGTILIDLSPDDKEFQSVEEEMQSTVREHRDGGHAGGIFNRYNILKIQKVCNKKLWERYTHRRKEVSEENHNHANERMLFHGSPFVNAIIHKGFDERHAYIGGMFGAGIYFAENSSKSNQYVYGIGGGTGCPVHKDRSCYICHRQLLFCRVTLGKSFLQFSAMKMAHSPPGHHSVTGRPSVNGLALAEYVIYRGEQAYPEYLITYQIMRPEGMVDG
# Experimental: as §1
# Biotin-4-((1S,2R,6S,7R)-3,5-Dioxo-4-aza-tricyclo[5.2.1.0*2,6*]dec-8-en-4-yl)-N-(4-methyl-quinolin-8-yl)-benzamide (Biotin-IWR2): 10 mM Biotin-IWR2 stock in DMSO, stored at −20° C. Positive control: 10 mM 2-(4-Trifluoromethyl-phenyl)-3,5,7,8-tetrahydro-thiopyrano[4,3-d]pyrimidin-4-one (XAV939) in DMSO, stored at −20° C.
# as §2
# as §3, with “Transfer” for “Add 25 μL/well 1.5% DMSO/AB1c buffer in each compound well to the compound concentration at 74 μM in 8.8% DMSO/AB1c buffer or in the 2 μL DMSO CONTROL wells (BLANK, TOTAL and POSITIVE wells) in the compound plate. Transfer”, “min.” for “min. Read the assay plate immediately at excitation wavelength of 330 nm and emission wavelength of 615 and 665 nM in time resolved fluorescence mode.”
Structure (SMILES),IC50 [1],IC50 [2],IC50 [3]
"Cc1cccc2c(=O)[nH]c3c(c12)COC(C1CCN(C(=O)C2CC2)CC1)C3 (racemic) [Compound I-63, rac-2-(1-Cyclopropanecarbonyl-piperidin-4-yl)-5-methyl-1,2,4,10-tetrahydro-3-oxa-10-aza-phenanthren-9-one]",52.6 nM,28.3 nM,26.9 nM
"Cc1ccc2c(=O)[nH]c3c(c2n1)COC(C(C)(C)C)C3 (racemic) [Compound I-49, rac-2-tert-Butyl-6-methyl-1,2,4,10-tetrahydro-3-oxa-5,10-diaza-phenanthren-9-one]",3050 nM,514 nM,77.5 nM
"CC(C)C1Cc2[nH]c(=O)c3ccoc3c2CO1 (racemic) [Compound I-10, rac-7-Isopropyl-5,6,7,9-tetrahydro-1,8-dioxa-5-aza-cyclopenta[a]naphthalen-4-one]",80.1 nM,93.7 nM,231 nM
"O=c1[nH]c2c(c3ccccc13)CO[C@@H](C1CCCC1)C2 (single isomer, unassigned) [Compound I-12]",30.6 nM,16 nM,19.4 nM
"Cn1ncc2c(=O)[nH]c3c(c21)COC(C(C)(C)C)C3 (racemic) [Compound I-42, rac-7-tert-Butyl-1-methyl-5,6,7,9-tetrahydro-1H-8-oxa-1,2,5-triaza-cyclopenta[a]naphthalen-4-one]",2100 nM,60.9 nM,87.7 nM
"O=c1[nH]c2c(c3cnccc13)COC(C1CCCC1)C2 (racemic) [Compound I-31, rac-7-Cyclopentyl-5,7,8,9-tetrahydro-6-oxa-3,9-diaza-phenanthren-10-one]",1790 nM,70.8 nM,89.1 nM
"CC(C)(C)C1Cc2[nH]c(=O)c3cnccc3c2CO1 (racemic) [Compound I-43, rac-7-tert-Butyl-5,7,8,9-tetrahydro-6-oxa-2,9-diaza-phenanthren-10-one]",876 nM,43.9 nM,49 nM
"CC(C)C1Cc2[nH]c(=O)c3ccc(C4CC4)cc3c2CO1 (racemic) [Compound I-38, rac-6-Cyclopropyl-2-isopropyl-1,2,4,10-tetrahydro-3-oxa-10-aza-phenanthren-9-one]",18700 nM,91 nM,196 nM
"Cc1cccc2c(=O)[nH]c3c(c12)CO[C@H](C(C)(C)CO)C3 (single isomer, unassigned) [Compound I-66]",89.7 nM,–,–
"CC(C)(C)OC(=O)N1CCC([C@@H]2Cc3[nH]c(=O)c4ccccc4c3CO2)CC1 (single isomer, unassigned) [Compound I-54]",115 nM,21.4 nM,25.7 nM
"O=c1[nH]c2c(c3ccccc13)CO[C@H](C1CCCC1)C2 (single isomer, unassigned) [Compound I-11]",37.1 nM,31.5 nM,102 nM
"CC1(C2Cc3[nH]c(=O)c4ccccc4c3CO2)COC1 (racemic) [Compound I-65, rac-2-(3-Methyl-oxetan-3-yl)-1,2,4,10-tetrahydro-3-oxa-10-aza-phenanthren-9-one]",43 nM,81.4 nM,101 nM
"CC(C)C1Cc2[nH]c(=O)c3cnccc3c2CO1 (racemic) [Compound I-15, rac-7-Isopropyl-5,7,8,9-tetrahydro-6-oxa-2,9-diaza-phenanthren-10-one]",> 50000 nM,50.8 nM,68.8 nM
"CC(C)(C)C1Cc2[nH]c(=O)c3ccncc3c2CO1 (racemic) [Compound I-34, rac-7-tert-Butyl-4a,5,7,8,9,10a-hexahydro-6-oxa-3,9-diaza-phenanthren-10-one]",3470 nM,84.9 nM,183 nM
"CC1(C(=O)N2CCC(C3Cc4[nH]c(=O)c5cccnc5c4CO3)CC2)CC1 (racemic) [Compound I-57, rac-2-[1-(1-methyl-cyclopropanecarbonyl)-piperidin-4-yl]-1,2,4,10-tetrahydro-3-oxa-5,10-diaza-phenanthren-9-one]",38.6 nM,40.2 nM,45.5 nM
"O=c1[nH]c2c(c3ccccc13)COC(C1CCNC1)C2 (stereo not drawn) [Compound I-36, 2-Pyrrolidin-3-yl-1,2,4,10-tetrahydro-3-oxa-10-aza-phenanthren-9-one, hydrochloride]",27.7 nM,168 nM,246 nM
"Cc1cccc2c(=O)[nH]c3c(c12)COC(C(C)C)C3 (racemic) [Compound I-17, rac-2-Isopropyl-5-methyl-1,2,4,10-tetrahydro-3-oxa-10-aza-phenanthren-9-one]",107 nM,–,–
"Cc1cccc2c(=O)[nH]c3c(c12)CO[C@@H](C(C)(C)CO)C3 (single isomer, unassigned) [Compound I-67]",70 nM,–,–
"CC(C)(CO)C1Cc2[nH]c(=O)c3ccccc3c2CO1 (racemic) [Compound I-30, rac-2-(2-Hydroxy-1,1-dimethyl-ethyl)-1,2,4,10-tetrahydro-3-oxa-10-aza-phenanthren-9-one]",53.3 nM,–,–
"O=C(C1COC1)N1CCC(C2Cc3[nH]c(=O)c4ccccc4c3CO2)CC1 (racemic) [Compound I-52, rac-2-[1-(Oxetane-3-carbonyl)-piperidin-4-yl]-1,2,4,10-tetrahydro-3-oxa-10-aza-phenanthren-9-one]",32.8 nM,–,–
"CC(C)C1Cc2[nH]c(=O)c3ccccc3c2CO1 (racemic) [Compound I-2, rac-2-Isopropyl-1,2,4,10-tetrahydro-3-oxa-10-aza-phenanthren-9-one]",34.3 nM,–,–
"CC(C)(C)C1Cc2[nH]c(=O)c3ccccc3c2CO1 (racemic) [Compound I-8, rac-2-tert-Butyl-1,2,4,10-tetrahydro-3-oxa-10-aza-phenanthren-9-one]",176 nM,–,–
"CC(C)C1Cc2[nH]c(=O)c3cccnc3c2CO1 (racemic) [Compound I-4, rac-2-Isopropyl-1,2,4,10-tetrahydro-3-oxa-5,10-diaza-phenanthren-9-one]",345 nM,–,–
"CS(=O)(=O)N1CCC(C2Cc3[nH]c(=O)c4ccccc4c3CO2)C1 (stereo not drawn) [Compound I-39, 2-(1-Methanesulfonyl-pyrrolidin-3-yl)-1,2,4,10-tetrahydro-3-oxa-10-aza-phenanthren-9-one]",36.5 nM,–,–
